In patent US20180064682A1, “INHIBITORS OF LEUKOTRIENE-MEDIATED ACTIVITY FOR TREATING SIDE EFFECTS OF STATIN THERAPY” (Yeda Research and Development Co. Ltd., priority 2014, published 2018):

Tests used:
[1] = tested on: differentiated mouse C2C12 myocytes; experiment: Simvastatin-triggered cell death of differentiated C2C12 myocytes, Crystal violet; format: cell-based; conditions: for cell death triggered by simvastatin (relative cell viability): 10 uM simvastatin, 5 days, pranlukast 10 μM, BAY-cysLT2 10 μM, BAY-u9773 1 μM
Description: FIGS. 11A-11B. BAY-cysLT2 and BAY-u9773 but not pranlukast attenuate simvastatin-triggered cell death of differentiated C2C12 mouse myocytes. (FIG. 11A) Survival of mouse C2C12 cells following differentiation into myocytes, treated with 10 uM simvastatin for 5 days in the presence of vehicle, pranlukast (10 μM), BAY-cysLT2 (10 μM), BAY-u9773 (1 μM) or Mevalonate (71.4 μM). The plates were then stained with Crystal violet and the relative cell viability was determined. (FIG. 11B) Quantification of the staining intensity is shown.
FIGS. 12A-12B. Zileuton but not montelukast attenuates simvastatin-triggered death of differentiated C2C12 mouse myocytes. (FIG. 12A) C2C12 immortalized mouse myoblasts (15,000 cells/100 ul DMEM) were seeded for 24 and then differentiated for 3 days (initiated by serum free medium supplemented with 1×ITS medium) and then treated with […] Simvastatin with or without montelukast (2 μM), zileuton (10 μM) or mevalonate (71.4 μM). After 4 days the cells were stained with crystal violet and photographed under light microscope. (FIG. 12B) Quantification of the staining intensity is shown.
To study the role of the MGST2-LTC4 pathway in statin-triggered cell death, differentiated mouse C2C12 myocytes in 96 well plates were treated with 10 uM simvastatin or vehicle in the presence of either vehicle, BAY-cysLT2 (10 μM) or BAY-u9773 (1 μM) or sodium mevalonate for 5 days.
To study the role of the MGST2-LTC4 pathway in statin-triggered cell death, differentiated mouse C2C12 myocytes in 96 well plates were treated with 20 uM simvastatin or vehicle in the presence of either vehicle, zileuton (10 μM) or sodium mevalonate for 4 days.

[2] = tested on: Human HaCaT pre-keratinocytes; experiment: ER stress-triggered ROS accumulation, DCFH-DA staining, HaCaT cells treated with Brefeldin A; format: cell-based; conditions: Brefeldin A 0.33 μg/ml, 24 hours, reversan 20 μM
Source text: FIGS. 4A-4E. ER stress-triggered ROS accumulation is mediated by MGST2-derived LTC4. (4A) Mouse B16 cells were transfected with control siRNA or MGST2 siRNA, then treated with tunicamycin and stained with the superoxide anion indicator dihydroethidium (DHE). Quantitation of relative DHE fluorescence intensity is presented as determined by the ImageJ program. N=3, ***p<0.001. (FIG. 4B) Mouse B16 cells were transfected with control siRNA or MGST2 siRNA, then treated with tunicamycin and stained with the superoxide anion indicator dihydroethidium (DHE). Silencing efficiency of mouse MGST2 mRNA as determined by qRT-PCR on replicate samples is shown. N=3, ***p<0.001. (FIG. 4C) Human HaCaT pre-keratinocytes were treated with Brefeldin A (0.33 μg/ml, 24 hours) with or without the MRP1 inhibitor reversan (20 μM) or the LTC4 antagonists pranlukast, BAY-cysLT2 or BAY-u9773. The cells were then stained with the ROS indicator DCFH-DA. Quantitative analysis of relative DCF fluorescence intensity is presented. […] N=3, * p<0.05. (FIG. 4D) Immunoblotting with anti FLAG tag of HEK 293T cell extract following transfection with either control pcDNA4 vector or pcMGST2-FLAG. (FIG. 4E) HEK 293T cells were either mock-transfected (Control), transfected with pcDNA4 or with pcMGST2-FLAG and then stained with DHE. Quantitative analysis of relative DHE fluorescence intensity is presented N=4, **p<0.01.
ER stress and oxidative stress are tightly associated, as ER stress triggers oxidative stress and vice versa. Therefore, a test for determining whether MGST2 and its product LTC4 are involved in ER stress-triggered ROS accumulation was performed. As previously reported, ER stress triggered by tunicamycin leads to accumulation of ROS, as detected by staining with the superoxide anion indicator dihydroethidium (DHE). […] MGST2 consumes GSH by coupling it not only to LTA4 but also to other substrates. […] Triggering ER stress by Brefeldin A generated ROS, as measured by the indicator dichloro-dihydro-fluorescein diacetate (DCFH-DA, FIGS. 4C, 5). […]

Human WISH cells [3] = experiment: Brefeldin A-triggered cell death, Crystal violet viability, WISH cells; format: cell-based; conditions: Brefeldin A 0.66 μg/ml, 48 hours, BAY-cysLT2 5 μM
Description: (§1) FIGS. 7A-7G. The MGST2-LTC4 pathway mediates ER stress-triggered cell death. (FIG. 7A) Mouse B16 cells were transfected with control siRNA (siControl) or MGST2-specific siRNA (siMGST2), treated with vehicle or tunicamycin (1 μg/ml, 24 hours) (Tm) and then stained with Crystal violet. Relative viability of the cells is shown. N=3 ***p<0.0001. (FIG. 7B) Mouse B16 cells were transfected with control siRNA (siControl) or MGST2-specific siRNA (siMGST2), treated with vehicle or tunicamycin (Tm) and then stained with Crystal violet. Silencing efficiency of mouse MGST2 mRNA as determined by qRT-PCR on replicate samples is shown. N=3, ***p<0.001. (FIG. 7C) HEK 293T cells were mock-transfected, transfected with pcDNA4 or with pcMGST2-FLAG, treated with vehicle (Control) or Brefeldin A (0.66 μg/ml, 24 hours) and then stained with Crystal violet. Relative viability of the cells is shown. N=3 ****p<0.0001. (FIG. 7D) Human HaCaT pre-keratinocytes were treated with vehicle (Control) or Brefeldin A (BfA, 1.33 μg/ml, 48 hours) in the absence or presence of BAY-u9773 (80 nM). The plates were then stained with Crystal violet. Relative viability of the cells is shown. N=4 ***p<0.0001. (FIG. 7E) Human WISH cells were treated either with vehicle (Control) or tunicamycin (1 μg/ml, 48 hours) in the absence or presence of BAY-u9773 (80 nM) and then stained with Neutral red. Relative viability of the cells is shown. […]

[4] = tested on: Human HaCaT pre-keratinocytes; experiment: ER stress-triggered cell death, Crystal violet viability, HaCaT cells; format: cell-based
Description: as §1

Human WISH cells [5] = experiment: Tunicamycin-induced cell death, Neutral red viability, WISH cells; format: cell-based; conditions: tunicamycin 1 μg/ml, 48 hours, BAY-u9773 80 nM
Description: as §1

[6] = tested on: Human HaCaT pre-keratinocytes; experiment: ER stress-triggered oxidative DNA damage, anti 8-OHdG immunostaining, HaCaT cells; format: cell-based; conditions: Brefeldin A 48 hours
Description: (§2) FIGS. 6A-6C. ER stress-triggered NADPH oxidase 4 (NOX4) expression, translocation towards the nuclei and DNA oxidation are mediated by the MGST2-LTC4 pathway. (FIG. 6A) Human WISH cells were treated with vehicle (Control) or Brefeldin A (0.66 μg/ml, 24 hours) in the absence or presence of BAY-u9773, MK571 or Montelukast. NOX4 levels were evaluated by immunoblotting. (FIG. 6B) Mouse B16 cells were treated with vehicle (Control) or tunicamycin (0.5 μg/ml, 24 hours) in the absence or presence of Montelukast, BAY-u9773 or BAY-cysLT2. NOX4 levels were evaluated by immunoblotting. (FIG. 6C) Human HaCaT pre-keratinocytes were treated with vehicle (Control) or Brefeldin A (48 hours) in the absence or presence of pranlukast or BAY-u9773, then immunostained with anti 8-OHdG. Quantitative analysis of 8-OHdG fluorescence intensity is shown. N=3 *p<0.05, ****p<0.001.
Accumulation of nuclear ROS in response to ER stress will result in oxidative DNA damage. To test whether the MGST2-LTC4 pathway is involved in ER stress-triggered DNA damage, the formation of the oxidized DNA derivative 8-hydroxy-2′dexoxyguanosine (8-OHdG) was measured. […] Altogether, the ER stress-triggered DNA damage was mediated to a very large extent by the MGST2-LTC4 pathway.

NOX4 in human WISH cells = experiment: NOX4 levels by immunoblotting, WISH cells under ER stress; format: cell-based; conditions: Brefeldin A 0.66 μg/ml, 24 hours
Description: as §2
Several ligands of G-protein coupled receptors to which CysLTR1 and CysLTR2 belong elicit oxidative stress through receptor-mediated activation of NOX. Human WISH cells and Mouse B16 cells were treated with vehicle (Control) or Brefeldin A (0.66 μg/ml, 24 hours) in the absence or presence of BAY-u9773, MK571 or Montelukast and NOX4 levels were evaluated by immunoblotting.

[7] = tested on: HMGB1 released from B16 cells; experiment: Release of necrosis marker HMGB1 to culture medium, immunoblot, B16 cells; format: cell-based, mouse; conditions: Brefeldin A 1.3 μg/ml, 24 hours, MK571
Description: (§3) FIGS. 8A-8C. Inhibitors of the MGST2-LTC4 Pathway Attenuate ER Stress-triggered Cell Death. (FIG. 8A) Human WISH cells were treated with vehicle (Control) or Brefeldin A (0.66 μg/ml, 48 hours) in the absence or presence of BAY-cysLT2. The plates were then stained with Crystal violet. Relative viability of the cells is shown. N=4, ***p<0.001. (FIG. 8B) Mouse B16 cells were treated with vehicle (Control) or tunicamycin (1 μg/ml, 24 hours) (Tm), thapsigargin (50 nM, 24 hours) (Tg) or Brefeldin A (BfA […], 24 hours) in the presence or absence of MK571 for 24 h. The plates were stained with Crystal violet. Relative viability of the cells is shown. N=4, ***p<0.001. (FIG. 8C) Immunoblot of the necrosis marker HMGB1 released to the culture media of B16 cells treated with vehicle (Control) or Brefeldin A (1.3 μg/ml, 24 hours) in the presence or absence of MK571. Ponceau staining serves as loading control.
(§4) On top of its activity as an MRP1 inhibitor, MK571 is a potent selective CysLTR1 antagonist.

Mouse B16 cells = experiment: ER stress-triggered cell death, Crystal violet viability, B16 cells; format: cell-based; conditions: 24 hours, MK571 10 μM
Description: as §3, §4

`O=C(O)c1ccc(OCCCc2ccc(OCCCCOc3ccccc3)cc2)c(C(=O)NC2CCCC(C(=O)O)C2)c1` (centres unmarked) [BAY-cysLT2] was tested, and the “cell death triggered by simvastatin (relative cell viability)” value [1] was “attenuated cell death”, the “ROS accumulation (relative DCF fluorescence intensity)” value [2] was “significantly inhibited ROS accumulation” and the “Brefeldin A-triggered death (relative viability)” value (Human WISH cells [3]) was “equally protected these cells from Brefeldin A”.
`CCCCC/C=C\C\C=C/C=C/C=C/[C@@H](Sc1ccc(C(=O)O)cc1)[C@@H](O)CCCC(=O)O` [BAY-u9773] was tested, and the “cell death triggered by simvastatin (relative cell viability)” value [1] was “attenuated cell death”, the “ER stress triggered cell death (relative viability)” value ([4]; Brefeldin A 1.33 μg/ml, 48 hours, BAY-u9773 80 nM) was “attenuated ER stress triggered cell death” and the “ROS accumulation (relative DCF fluorescence intensity)” value [2] was “significantly inhibited ROS accumulation”. The “tunicamycin-induced death (relative viability)” value (Human WISH cells [5]) was “significantly attenuated tunicamycin-induced death”, the “formation of nuclear 8-OHdG (oxidative DNA damage)” value [6] was “even more effective in attenuating the DNA damage” and the “NOX4 expression upon ER stress” value (NOX4 in human WISH cells) was “greatly inhibited NOX4 expression”.
`CN(C)C(=O)CCSC(SCCC(=O)O)c1cccc(/C=C/c2ccc3ccc(Cl)cc3n2)c1` (centres unmarked) [MK571] was tested, and the “secretion of HMGB1 to the culture medium (cellular necrosis)” value [7] was “reduced secretion of HMGB1”, the “NOX4 expression upon ER stress” value (NOX4 in human WISH cells) was “greatly inhibited NOX4 expression” and the “cell death triggered by Brefeldin A (relative viability)” value (Mouse B16 cells; Brefeldin A) was “significantly attenuated cell death”. The “cell death triggered by thapsigargin (relative viability)” value (Mouse B16 cells; thapsigargin 50 nM) was “significantly attenuated cell death” and the “cell death triggered by tunicamycin (relative viability)” value (Mouse B16 cells; tunicamycin 1 μg/ml) was “significantly attenuated cell death”.
With `O=C(NCCCN1CCOCC1)c1cnn2c(-c3ccccc3)cc(-c3ccccc3)nc12` [reversan] the “ROS accumulation (relative DCF fluorescence intensity)” value [2] was “small but statistically insignificant inhibitory effect on ROS accumulation”.
`CC(c1cc2ccccc2s1)N(O)C(N)=O` (centres unmarked) [zileuton] was tested, and the “cell death triggered by simvastatin (staining intensity)” value ([1]; 20 uM simvastatin, 4 days, zileuton 10 μM, montelukast 2 μM) was “attenuated cell death” and the “death triggered by proteasome inhibitor MG262 (relative viability)” value ([4]; MG262 50 nM, 24 hours, zileuton 10 μM) was “significantly protected HaCaT keratinocytes from death”.
